Legend:
Experiment in all cases: Confocal calcium imaging of Ghrelin receptor family, overexpressed in HEK293T cells
Type in all cases: cell-based
Conditions in all cases: 200 μM
[1] = biological target: T1, Ghrelin receptor (GHSR, NP_940799.1) (Homo sapiens, UniProt Q92847)
T1 construct: mCherry; host or cells: HEK293T, transient
Protocol: (§1) According to the transient transfection method of Example 5.2, the 6 receptors of Ghrelin family except GPR39 were overexpressed in HEK293T cells respectively (the expression vectors for these 6 receptors came from the research group of Rao Yi, Peking University), and calcium dye was incubated. An inverted laser confocal microscope (leica Co.) was used to detect the activation of the 6 receptors of Ghrelin family by LCAS. The specific operations were as below: placing the cells to be detected on the microscope stage, detecting the fluorescence signal value of the calcium dye Fluo8 with the 488 nm channel, and detecting the fluorescence signal value of mCherry with the 543 nm channel. All receptors fused to express the red fluorescence protein mCherry, and the expression of receptors was determined by detecting the red fluorescence emitted from mCherry.

[2] = biological target: T2, Neuromedin-U receptor 1 (NMUR1, NP_006047.3) (Homo sapiens, UniProt Q9HB89)
T2 construct: mCherry; host or cells: HEK293T, transient
T2 sequence (Q9HB89 1-426): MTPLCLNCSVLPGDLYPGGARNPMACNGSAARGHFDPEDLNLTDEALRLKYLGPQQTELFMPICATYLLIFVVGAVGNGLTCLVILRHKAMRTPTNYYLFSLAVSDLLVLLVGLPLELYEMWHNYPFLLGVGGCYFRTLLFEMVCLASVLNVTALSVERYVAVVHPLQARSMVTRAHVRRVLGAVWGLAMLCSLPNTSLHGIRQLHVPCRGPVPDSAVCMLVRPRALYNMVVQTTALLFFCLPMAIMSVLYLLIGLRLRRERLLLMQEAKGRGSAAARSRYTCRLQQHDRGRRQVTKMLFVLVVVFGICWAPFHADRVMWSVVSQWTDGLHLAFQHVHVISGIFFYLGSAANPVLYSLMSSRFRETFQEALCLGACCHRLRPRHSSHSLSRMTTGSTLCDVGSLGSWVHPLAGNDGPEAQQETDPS
Protocol: as §1

[3] = biological target: T3, Neurotensin receptor 1 (NTSR1, NP_002522.2) (Homo sapiens, UniProt P30989)
T3 construct: mCherry; host or cells: HEK293T, transient
T3 sequence (P30989 whole entry): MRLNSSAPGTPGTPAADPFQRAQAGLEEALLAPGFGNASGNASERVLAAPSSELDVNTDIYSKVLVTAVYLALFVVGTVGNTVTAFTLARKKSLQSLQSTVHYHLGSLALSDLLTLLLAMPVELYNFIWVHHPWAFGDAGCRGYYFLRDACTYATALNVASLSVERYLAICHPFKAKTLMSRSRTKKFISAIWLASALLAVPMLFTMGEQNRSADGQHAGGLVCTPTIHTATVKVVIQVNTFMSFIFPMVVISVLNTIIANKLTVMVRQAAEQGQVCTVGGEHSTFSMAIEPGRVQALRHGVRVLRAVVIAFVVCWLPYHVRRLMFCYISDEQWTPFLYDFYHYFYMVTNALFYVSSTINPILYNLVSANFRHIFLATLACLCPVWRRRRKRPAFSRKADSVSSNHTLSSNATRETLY
Protocol: as §1

[4] = biological target: T4, Neurotensin receptor 2 (NTSR2, NP_036476.2) (Homo sapiens, UniProt O95665)
T4 construct: mCherry; host or cells: HEK293T, transient
T4 sequence (O95665 whole entry): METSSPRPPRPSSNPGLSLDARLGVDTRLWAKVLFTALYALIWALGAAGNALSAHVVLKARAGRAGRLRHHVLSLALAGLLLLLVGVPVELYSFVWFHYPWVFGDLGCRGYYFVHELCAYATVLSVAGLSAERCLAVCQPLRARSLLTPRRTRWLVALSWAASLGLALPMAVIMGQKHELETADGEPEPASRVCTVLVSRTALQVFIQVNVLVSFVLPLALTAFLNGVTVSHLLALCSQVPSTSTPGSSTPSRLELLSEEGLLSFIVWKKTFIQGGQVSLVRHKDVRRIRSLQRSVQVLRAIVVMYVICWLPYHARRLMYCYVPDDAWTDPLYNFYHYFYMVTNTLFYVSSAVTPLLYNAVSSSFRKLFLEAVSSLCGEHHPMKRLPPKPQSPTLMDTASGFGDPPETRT
Protocol: as §1

T1 sequence (Q92847 whole entry): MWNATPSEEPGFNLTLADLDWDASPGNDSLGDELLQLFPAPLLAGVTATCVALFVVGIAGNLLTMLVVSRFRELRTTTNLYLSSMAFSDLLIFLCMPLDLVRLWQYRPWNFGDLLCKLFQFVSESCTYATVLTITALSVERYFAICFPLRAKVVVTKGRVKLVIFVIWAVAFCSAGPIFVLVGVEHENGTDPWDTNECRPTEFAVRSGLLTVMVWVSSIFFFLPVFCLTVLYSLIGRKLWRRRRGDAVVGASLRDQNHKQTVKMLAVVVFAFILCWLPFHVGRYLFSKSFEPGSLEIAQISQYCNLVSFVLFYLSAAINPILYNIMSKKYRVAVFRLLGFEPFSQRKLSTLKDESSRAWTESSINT

C[C@H](CCC(=O)O)[C@H]1CC[C@H]2[C@@H]3CC[C@@H]4C[C@H](OS(=O)(=O)O)CC[C@]4(C)[C@H]3CC[C@]12C [LCAS]
cannot be activated: activation of GHSR (calcium imaging) [1] | activation of NMUR1 (calcium imaging) [2] | activation of NTSR1 (calcium imaging) [3] | activation of NTSR2 (calcium imaging) [4]
